We go through 40 molecules from patent US10544143B2, “4-azaindole compounds” (BRISTOL-MYERS SQUIBB COMPANY, priority 2017, dated 2020).

Experiment [1] deals with human TLR9 (Homo sapiens (Human), UniProt Q9NR96). The experiment in a line: TLR9 inhibition reporter assay (HEK-Blue SEAP).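 Further: SEAP driven by an IFN-β minimal promoter with NF-κB and AP-1 sites, read after 22 h, compounds dosed 0.05 nM–50 µM, inhibition scaled between agonist plus DMSO and reference-inhibitor wells.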 Conditions: ODN2006 5 nM.
Chain of human TLR9 (Q9NR96 26-1032): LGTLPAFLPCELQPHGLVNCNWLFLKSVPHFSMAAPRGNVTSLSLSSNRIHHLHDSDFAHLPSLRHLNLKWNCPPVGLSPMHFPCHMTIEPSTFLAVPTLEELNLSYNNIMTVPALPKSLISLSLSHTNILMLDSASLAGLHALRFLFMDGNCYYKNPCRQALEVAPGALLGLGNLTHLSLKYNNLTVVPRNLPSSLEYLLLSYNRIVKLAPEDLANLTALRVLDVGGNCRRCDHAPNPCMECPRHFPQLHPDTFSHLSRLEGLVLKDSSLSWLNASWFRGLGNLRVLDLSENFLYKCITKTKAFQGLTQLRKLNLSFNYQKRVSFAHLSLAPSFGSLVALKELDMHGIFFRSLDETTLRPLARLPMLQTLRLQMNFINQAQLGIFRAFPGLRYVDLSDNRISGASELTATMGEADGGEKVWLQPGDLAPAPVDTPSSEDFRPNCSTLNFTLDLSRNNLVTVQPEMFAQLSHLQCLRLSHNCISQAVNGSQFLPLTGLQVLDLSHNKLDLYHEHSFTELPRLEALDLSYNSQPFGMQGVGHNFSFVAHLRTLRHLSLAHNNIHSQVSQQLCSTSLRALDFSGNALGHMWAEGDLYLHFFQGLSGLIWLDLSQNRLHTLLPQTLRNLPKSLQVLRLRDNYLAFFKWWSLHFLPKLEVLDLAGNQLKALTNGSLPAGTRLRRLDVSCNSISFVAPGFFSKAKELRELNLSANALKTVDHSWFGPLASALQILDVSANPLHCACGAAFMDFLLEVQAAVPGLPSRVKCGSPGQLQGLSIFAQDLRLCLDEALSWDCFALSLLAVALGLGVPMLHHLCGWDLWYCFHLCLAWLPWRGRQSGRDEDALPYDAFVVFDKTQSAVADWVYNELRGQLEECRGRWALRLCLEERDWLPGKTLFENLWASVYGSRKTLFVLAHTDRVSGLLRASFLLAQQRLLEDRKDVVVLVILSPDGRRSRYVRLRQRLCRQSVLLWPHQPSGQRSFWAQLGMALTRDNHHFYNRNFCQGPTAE
Procedure: HEK-Blue™-cells (Invivogen) overexpressing human TLR7, TLR8 or TLR9 receptors were used for screening inhibitors of these receptors using an inducible SEAP (secreted embryonic alkaline phosphatase) reporter gene under the control of the IFN-β minimal promoter fused to five NF-κB and AP-1-binding sites. Briefly, cells are seeded into Greiner 384 well plates (15000 cells per well for TLR7, 20,000 for TLR8 and 25,000 for TLR9) and then treated with test compounds in DMSO to yield a final dose response concentration range of 0.05 nM-50 μM. After a 30 minute compound pre-treatment at room temperature, the cells are then stimulated with a TLR7 ligand (gardiquimod at a final concentration of 7.5 μM), TLR8 ligand (R848 at a final concentration of 15.9 μM) or TLR9 ligand (ODN2006 at a final concentration of 5 nM) to activate NF-κB and AP-1 which induce the production of SEAP. After a 22 hour incubation at 37° C., 5% CO2, SEAP levels are determined with the addition of HEK-Blue™ Detection reagent (Invivogen), a cell culture medium that allows for detection of SEAP, according to manufacturer's specifications.
The target of experiment [2] is human TLR7 (Homo sapiens (Human), UniProt Q9NYK1). The experiment in a line: TLR7 inhibition reporter assay (HEK-Blue SEAP). It is filed as cell-based. Conditions: HEK-Blue human TLR7 cells, gardiquimod 7.5 μM. (In a reporter assay the amount or activity of a reporter protein is the signal.)
Chain of human TLR7 (Q9NYK1 27-1049): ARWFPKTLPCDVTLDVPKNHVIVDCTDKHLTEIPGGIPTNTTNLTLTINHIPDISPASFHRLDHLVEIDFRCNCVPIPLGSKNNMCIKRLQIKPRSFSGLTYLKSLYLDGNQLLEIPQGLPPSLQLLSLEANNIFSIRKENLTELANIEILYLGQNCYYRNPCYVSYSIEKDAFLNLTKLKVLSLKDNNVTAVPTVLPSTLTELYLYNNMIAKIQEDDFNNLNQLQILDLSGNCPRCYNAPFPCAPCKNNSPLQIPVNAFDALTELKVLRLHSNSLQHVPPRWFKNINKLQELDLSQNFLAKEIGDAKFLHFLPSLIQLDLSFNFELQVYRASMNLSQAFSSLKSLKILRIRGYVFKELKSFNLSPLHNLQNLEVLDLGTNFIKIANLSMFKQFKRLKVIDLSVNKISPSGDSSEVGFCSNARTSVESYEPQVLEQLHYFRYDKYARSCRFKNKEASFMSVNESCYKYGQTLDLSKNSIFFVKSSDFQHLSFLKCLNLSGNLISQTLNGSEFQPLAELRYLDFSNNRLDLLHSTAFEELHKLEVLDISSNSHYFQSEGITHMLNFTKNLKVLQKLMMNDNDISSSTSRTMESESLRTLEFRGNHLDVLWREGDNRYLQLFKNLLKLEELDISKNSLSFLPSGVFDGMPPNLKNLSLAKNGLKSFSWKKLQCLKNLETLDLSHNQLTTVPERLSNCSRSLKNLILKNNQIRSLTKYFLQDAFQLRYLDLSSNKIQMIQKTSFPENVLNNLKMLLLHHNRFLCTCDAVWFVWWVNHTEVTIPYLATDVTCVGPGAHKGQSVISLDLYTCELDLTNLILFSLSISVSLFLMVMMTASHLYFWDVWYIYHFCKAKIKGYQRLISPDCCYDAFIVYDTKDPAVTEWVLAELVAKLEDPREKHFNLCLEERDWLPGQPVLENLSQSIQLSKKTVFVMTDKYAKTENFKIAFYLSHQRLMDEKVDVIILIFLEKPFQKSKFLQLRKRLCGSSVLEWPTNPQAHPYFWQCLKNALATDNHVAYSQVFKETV
Experiment [3] addresses human TLR8 (Homo sapiens (Human), UniProt Q9NR97). Nature of the experiment: TLR8 inhibition reporter assay (HEK-Blue SEAP).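 Further: SEAP driven by IFN-β minimal promoter carrying NF-κB and AP-1 sites, compounds dosed 0.05 nM to 50 µM for 22 h, inhibition scaled between agonist-plus-DMSO and reference-inhibitor wells.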 Conditions: R848 15.9 μM.
Setting [4] is: read-out: TLR9 IC50, HEK-Blue human TLR9 cells.
[5] abbreviates: read-out: TLR8 IC50, HEK-Blue human TLR8 cells.
Setting [6] is: TLR9 IC50, HEK-Blue human TLR9 cells.
[7] abbreviates: TLR8 IC50, HEK-Blue human TLR8 cells.

Where two headings read alike, the source gives them in different places.

Chain of human TLR8 (Q9NR97 27-1041): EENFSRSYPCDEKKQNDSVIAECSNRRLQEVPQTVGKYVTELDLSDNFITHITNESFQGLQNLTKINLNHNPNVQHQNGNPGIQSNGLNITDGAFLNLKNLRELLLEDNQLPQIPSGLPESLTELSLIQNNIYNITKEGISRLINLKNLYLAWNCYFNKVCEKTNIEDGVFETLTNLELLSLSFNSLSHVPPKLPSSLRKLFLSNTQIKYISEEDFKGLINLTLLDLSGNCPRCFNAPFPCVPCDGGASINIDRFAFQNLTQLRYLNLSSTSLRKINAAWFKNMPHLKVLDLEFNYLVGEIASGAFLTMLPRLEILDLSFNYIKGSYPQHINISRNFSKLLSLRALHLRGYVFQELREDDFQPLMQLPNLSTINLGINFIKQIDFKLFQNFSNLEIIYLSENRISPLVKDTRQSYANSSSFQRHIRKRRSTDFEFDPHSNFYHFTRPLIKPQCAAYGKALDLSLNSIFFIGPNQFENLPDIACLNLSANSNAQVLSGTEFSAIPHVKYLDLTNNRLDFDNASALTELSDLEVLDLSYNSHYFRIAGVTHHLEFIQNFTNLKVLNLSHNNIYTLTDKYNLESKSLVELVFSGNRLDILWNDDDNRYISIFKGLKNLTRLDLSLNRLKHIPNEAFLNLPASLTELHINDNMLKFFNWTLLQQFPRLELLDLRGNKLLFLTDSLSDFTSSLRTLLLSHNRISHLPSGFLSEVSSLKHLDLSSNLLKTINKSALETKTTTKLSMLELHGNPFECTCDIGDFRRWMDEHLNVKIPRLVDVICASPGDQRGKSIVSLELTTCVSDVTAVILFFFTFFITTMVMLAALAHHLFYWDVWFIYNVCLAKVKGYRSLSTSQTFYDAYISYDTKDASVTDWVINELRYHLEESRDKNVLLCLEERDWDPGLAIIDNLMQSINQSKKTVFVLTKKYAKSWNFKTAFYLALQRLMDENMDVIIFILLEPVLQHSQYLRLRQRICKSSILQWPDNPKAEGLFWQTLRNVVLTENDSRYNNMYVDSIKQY

`Cc1c(-c2[nH]c3ccc(N4CCN(C5CCOC5)C[C@@H]4C)nc3c2C(C)C)cn2ncnc2c1C` (stereo partly drawn) [Example 814]: the IC50 is over 50 µM in experiment [1] (setting [4]), 1.9 nM in experiment [2] and 2.3 nM in experiment [3] (setting [5]).
Regarding `Cc1c(-c2[nH]c3ccc(N4CCN(C5CCS(=O)(=O)CC5)C[C@@H]4C)nc3c2C(C)C)cn2ncnc2c1C` [Example 815], the results for the IC50 in experiment [1] (setting [4]), in experiment [2] and in experiment [3] (setting [5]) were over 50 µM, 1.8 nM and 1.4 nM, respectively.
For `Cc1c(-c2[nH]c3ccc(N4CCN(C(C)C)C[C@@H]4C)nc3c2C(C)C)cn2ncnc2c1C` [Example 816], the IC50 was 8.72 µM in experiment [1] (setting [4]), 1.7 nM in experiment [2] and 1.7 nM in experiment [3] (setting [5]).
`Cc1c(-c2[nH]c3ccc(N4CCN(CCS(C)(=O)=O)C[C@@H]4C)nc3c2C(C)C)cn2ncnc2c1C` [Example 817]: the figures for the 50% inhibitory concentration (IC50) in experiment [1] (setting [4]), in experiment [2] and in experiment [3] (setting [5]) were over 50 µM, 2.1 nM and 2.9 nM, respectively.
The corresponding values for `CNC(=O)CCN1CCN(c2ccc3[nH]c(-c4cn5ncnc5c(C)c4C)c(C(C)C)c3n2)[C@@H](C)C1` [Example 818] are 12.8 µM, 0.78 nM and 0.43 nM.
As to `Cc1c(-c2[nH]c3ccc(N4CCN(C5CCOCC5)C[C@@H]4C)nc3c2C(C)C)cn2ncnc2c1C` [Example 820], the IC50 in experiment [1] (setting [4]) amounted to 9.4 µM; in experiment [2] it was 2.7 nM; in experiment [3] (setting [5]) it was 2 nM.
Take `Cc1c(-c2[nH]c3ccc(N4[C@@H](C)CNC[C@@H]4C)nc3c2C(C)C)cn2ncnc2c1C` [Example 821]: the IC50 in experiment [1] (setting [4]) is 6.69 µM; in experiment [2] it was 1.3 nM; in experiment [3] (setting [5]), 1.3 nM.
With `Cc1c(-c2[nH]c3ccc(N4CCN[C@H](C)C4)nc3c2C(C)C)cn2ncnc2c1C` [Example 822], the IC50 was 6.91 µM in experiment [1] (setting [4]), 1.1 nM in experiment [2] and 0.24 nM in experiment [3] (setting [5]).
For `Cc1c(-c2[nH]c3ccc(N4CCN(C(=O)CCN(C)C)C[C@H]4C)nc3c2C(C)C)cn2ncnc2c1C` [Example 823], the IC50 in experiment [1] (setting [4]) came out at 6.93 µM; in experiment [2], 0.49 nM; in experiment [3] (setting [5]), 1.2 nM.
For `Cc1c(-c2[nH]c3ccc(N4CCN(C(=O)CN5CCC5)C[C@@H]4C)nc3c2C(C)C)cn2ncnc2c1C` [Example 824], the IC50 in experiment [1] (setting [4]) stood at 5.79 µM; in experiment [2], 1.6 nM; in experiment [3] (setting [5]), 2.1 nM.
As to `Cc1c(-c2[nH]c3ccc(N4CCN(C(=O)CN5CCCC5)C[C@@H]4C)nc3c2C(C)C)cn2ncnc2c1C` [Example 825], the IC50 in experiment [1] (setting [4]) amounted to 6.28 µM; in experiment [2], 0.53 nM; in experiment [3] (setting [5]), 1.1 nM.
For `Cc1c(-c2[nH]c3ccc(N4CCN(C(=O)CNC5CC5)C[C@@H]4C)nc3c2C(C)C)cn2ncnc2c1C` [Example 826], in that order: 15.7 µM, 0.7 nM and 1 nM.
Turning to `Cc1c(-c2[nH]c3ccc(N4CCN(C(=O)CNC(C)C)C[C@@H]4C)nc3c2C(C)C)cn2ncnc2c1C` [Example 827], the results for the IC50 in experiment [1] (setting [4]), in experiment [2] and in experiment [3] (setting [5]) were 4.85 µM, 0.46 nM and 0.34 nM, respectively.
Take `Cc1c(-c2[nH]c3ccc(N4CCN(C(=O)C5CN(C)C5)CC4)nc3c2C(C)C)cn2ncnc2c1C` [Example 828]: the IC50 came to 7.16 µM in experiment [1] (setting [4]), 0.88 nM in experiment [2] and 1.4 nM in experiment [3] (setting [5]).
As to `Cc1c(-c2[nH]c3ccc(N4CCN(C(=O)C5CN(C)C5)C[C@@H]4C)nc3c2C(C)C)cn2ncnc2c1C` [Example 829], the IC50 in experiment [1] (setting [4]) is 17.3 µM; in experiment [2] it was 3.7 nM; in experiment [3] (setting [5]), 12 nM.
The corresponding values for `CNCC(=O)N1CCN(c2ccc3[nH]c(-c4cn5ncnc5c(C)c4C)c(C(C)C)c3n2)CC1` [Example 830] are 7.44 µM, 0.62 nM and 0.63 nM.
`Cc1c(-c2[nH]c3ccc(N4CCN(C(=O)CN)CC4)nc3c2C(C)C)cn2ncnc2c1C` [Example 832]: the IC50 in experiment [1] (setting [4]) came out at 16.8 µM; in experiment [2] it was 4 nM; in experiment [3] (setting [5]) it was 2.3 nM.
Turning to `Cc1c(-c2[nH]c3ccc(N4CCN(C(C)C)C[C@H]4C)nc3c2C(C)C)cn2ncnc2c1C` [Example 833], the IC50 in experiment [1] (setting [4]) was 9.78 µM; in experiment [2], 1.9 nM; in experiment [3] (setting [5]) it was 4.9 nM.
In the case of `Cc1c(-c2[nH]c3ccc(N4CCN(C(=O)CN5CCC5)C[C@H]4C)nc3c2C(C)C)cn2ncnc2c1C` [Example 834], the IC50 in experiment [1] (setting [4]) was 4.37 µM; in experiment [2], 0.46 nM; in experiment [3] (setting [5]), 2.5 nM.
On to `Cc1c(-c2[nH]c3ccc(N4CCN(C(=O)CN5CCCC5)C[C@H]4C)nc3c2C(C)C)cn2ncnc2c1C` [Example 835], for which the IC50 in experiment [1] (setting [4]) came out at 5.56 µM; in experiment [2], 0.7 nM; in experiment [3] (setting [5]), 4.1 nM.
In the case of `Cc1c(-c2[nH]c3ccc(N4CCN(C(=O)CNC5CC5)C[C@H]4C)nc3c2C(C)C)cn2ncnc2c1C` [Example 836], the IC50 stood at 16.4 µM in experiment [1] (setting [4]), 2.4 nM in experiment [2] and 4.1 nM in experiment [3] (setting [5]).
For `Cc1c(-c2[nH]c3ccc(N4CCN(C(=O)CNC(C)C)C[C@H]4C)nc3c2C(C)C)cn2ncnc2c1C` [Example 837], the concentration for half-maximal inhibition (IC50) was found to be 7.82 µM in experiment [1] (setting [4]), 0.7 nM in experiment [2] and 1.6 nM in experiment [3] (setting [5]).
Turning to `[2H]C([2H])([2H])N(CC(=O)N1CCN(c2ccc3[nH]c(-c4cn5ncnc5c(C)c4C)c(C(C)C)c3n2)[C@H](C)C1)C([2H])([2H])[2H]` [Example 838], the figures for the IC50 in experiment [1] (setting [6]), in experiment [2] and in experiment [3] (setting [7]) were 9.89 µM, 0.6 nM and 3.5 nM, respectively.
Turning to `Cc1c(-c2[nH]c3ccc(N4C[C@H](C)N(C(=O)CN(C)C)C[C@H]4C)nc3c2C(C)C)cn2ncnc2c1C` [Example 839], the IC50 turned out to be 7.87 µM in experiment [1] (setting [4]), 0.37 nM in experiment [2] and 3.2 nM in experiment [3] (setting [5]).
With `Cc1c(-c2[nH]c3ccc(N4C[C@H](C)N(C(=O)CCN(C)C)C[C@H]4C)nc3c2C(C)C)cn2ncnc2c1C` [Example 840], the half-inhibitory concentration (IC50) was found to be 7.4 µM in experiment [1] (setting [4]), 0.38 nM in experiment [2] and 1.5 nM in experiment [3] (setting [5]).
As to `Cc1c(-c2[nH]c3ccc(N4C[C@H](C)N(C(C)C)C[C@H]4C)nc3c2C(C)C)cn2ncnc2c1C` [Example 841], the IC50 in experiment [1] (setting [4]) is 14.3 µM; in experiment [2], 5.6 nM; in experiment [3] (setting [5]), 28 nM.
As to `Cc1c(-c2[nH]c3ccc(N4C[C@@H](C)N(C(=O)CN(C)C)C[C@@H]4C)nc3c2C(C)C)cn2ncnc2c1C` [Example 842], the IC50 was 6.92 µM in experiment [1] (setting [4]), 0.38 nM in experiment [2] and 0.47 nM in experiment [3] (setting [5]).
The corresponding values for `Cc1c(-c2[nH]c3ccc(N4C[C@@H](C)N(C(=O)CCN(C)C)C[C@@H]4C)nc3c2C(C)C)cn2ncnc2c1C` [Example 843] are 5.48 µM, 0.52 nM and 1.4 nM.
Consider `Cc1c(-c2[nH]c3ccc(N4C[C@@H](C)N(C(C)C)C[C@@H]4C)nc3c2C(C)C)cn2ncnc2c1C` [Example 844], for which the IC50 in experiment [1] (setting [4]) is 8.82 µM; in experiment [2], 2 nM; in experiment [3] (setting [5]), 11 nM.
Turning to `Cc1c(-c2[nH]c3ccc(N4C[C@H](C)N(CCCS(C)(=O)=O)C[C@H]4C)nc3c2C(C)C)cn2ncnc2c1C` [Example 845], the values for the IC50 in experiment [1] (setting [4]), in experiment [2] and in experiment [3] (setting [5]) were 21.3 µM, 7.2 nM and 14 nM, respectively.
In the case of `Cc1c(-c2[nH]c3ccc(N4C[C@H](C)N(CCC(N)=O)C[C@H]4C)nc3c2C(C)C)cn2ncnc2c1C` [Example 847], the results for the IC50 in experiment [1] (setting [4]), in experiment [2] and in experiment [3] (setting [5]) were 22.5 µM, 4.9 nM and 8.3 nM, respectively.
As to `Cc1c(-c2[nH]c3ccc(N4C[C@@H](C)N(CCC(N)=O)C[C@@H]4C)nc3c2C(C)C)cn2ncnc2c1C` [Example 848], the IC50 in experiment [1] (setting [4]) stood at 17.5 µM; in experiment [2], 1.2 nM; in experiment [3] (setting [5]), 2.2 nM.
Take `Cc1c(-c2[nH]c3ccc(N4CCN(C(=O)CCN(C)C)[C@H](C)C4)nc3c2C(C)C)cn2ncnc2c1C` [Example 850]: the figures for the IC50 in experiment [1] (setting [4]), in experiment [2] and in experiment [3] (setting [5]) were 6.54 µM, 0.72 nM and 1.6 nM, respectively.
`Cc1c(-c2[nH]c3ccc(N4CCN(C(C)C)[C@H](C)C4)nc3c2C(C)C)cn2ncnc2c1C` [Example 851]: the IC50 in experiment [1] (setting [4]) was found to be 9.98 µM; in experiment [2] it was 5.9 nM; in experiment [3] (setting [5]) it was 2.2 nM.
As for `Cc1c(-c2[nH]c3ccc(N4CCN(CCC(N)=O)[C@H](C)C4)nc3c2C(C)C)cn2ncnc2c1C` [Example 852], the IC50 is 16.2 µM in experiment [1] (setting [4]), 5.2 nM in experiment [2] and 0.82 nM in experiment [3] (setting [5]).
For `Cc1c(-c2[nH]c3ccc(N4CCN(C(=O)[C@H](C)N(C)C)CC4)nc3c2C(C)C)cn2ncnc2c1C` [Example 853], the figures for the IC50 in experiment [1] (setting [4]), in experiment [2] and in experiment [3] (setting [5]) were 9.57 µM, 0.51 nM and 0.66 nM, respectively.
For `Cc1c(-c2[nH]c3ccc(N4CCN(C(=O)C5(N(C)C)CC5)CC4)nc3c2C(C)C)cn2ncnc2c1C` [Example 854], in that order: 32.3 µM, 11 nM and 5 nM.
On to `Cc1c(-c2[nH]c3ccc(N4CCN(CCCS(C)(=O)=O)[C@H](C)C4)nc3c2C(C)C)cn2ncnc2c1C` [Example 856], for which the IC50 in experiment [1] (setting [4]) stood at 27.1 µM; in experiment [2] it was 7.3 nM; in experiment [3] (setting [5]) it was 0.46 nM.
Regarding `[2H]C1([2H])NC([2H])([2H])C([2H])([2H])N(c2ccc3[nH]c(-c4cn5ncnc5c(C)c4C)c(C(C)C)c3n2)C1([2H])[2H]` [Example 857], the figures for the IC50 in experiment [1] (setting [6]), in experiment [2] and in experiment [3] (setting [7]) were 4.4 µM, 0.65 nM and 0.4 nM, respectively.
As to `Cc1c(-c2[nH]c3ccc(N4C[C@@H](C)N(C(=O)CCN(C)C)[C@@H](C)C4)nc3c2C(C)C)cn2ncnc2c1C` [Example 860], the IC50 amounted to 5.06 µM in experiment [1] (setting [4]), 0.3 nM in experiment [2] and 0.62 nM in experiment [3] (setting [5]).

Broadly, the IC50 is the point on the concentration scale where inhibition reaches its midpoint.
